From patent US11826364B2, “Treatment for epilepsy” (Katholieke Universiteit Leuven, priority 2017, dated 2023)

Columns and labels:
[1] = test system: NMRI mice; experiment: Mouse 6-Hz (44 mA) psychomotor seizure model; assay type: in vivo; conditions: 30 min before stimulation; for mean seizure duration (±SD): Example 8; for mean seizure duration: Example 7
Protocol: Experiments were performed as described in Copmans et al. (2018) ACS chemical neuroscience. […] Mice were manually restrained and a drop of ocular anesthetic (0.5% lidocaine) was applied to the corneas before stimulation. Following electrical current stimulation, the mouse was released in a transparent cage for behavioral observation, which was video-recorded. […] In addition, facial and mouth jerking as well as head nodding were observed occasionally. Seizure durations were measured during the experiment by experienced researchers, familiar with the different seizure behaviors. In addition, seizure durations were determined by blinded video analysis to confirm or correct the initial observations. Data are expressed as mean±SD.

[2] = test system: zebrafish larvae; experiment: Non-invasive local field potential (LFP) recordings from the optic tectum, zebrafish PTZ seizure model; assay type: in vivo, zebrafish (Danio rerio); conditions: MTC (20 μg/mL); 2 hours incubation; 10 min recording
Protocol: Non-invasive LFP recordings were measured from the midbrain (optic tectum) of 7 dpf zebrafish larvae pre-incubated with VHC only, PTZ only, compound and VHC, or compound and PTZ. Experiments were performed as described in Copmans et al. (2018) Neurochem. Int. 112, 124-133;
Copmans (2018) ACS chemical neuroscience. In brief, larvae were incubated for approximately 2 hours with VHC (1% DMSO) or test compound (1% DMSO) in a 100 μL volume. After incubation, an equal volume of VHC (embryo medium) or 40 mM PTZ (20 mM working concentration) was added to the well for 15 minutes prior to recording. These steps occurred at 28° C., while further manipulation and electrophysiological recordings occurred at room temperature (±21° C.). The larva was embedded in 2% low melting point agarose (Invitrogen) and the signal electrode (an electrode inside a soda-glass pipet (1412227, Hilgenberg) pulled with a DMZ Universal Puller (Zeitz, Germany), diameter±20 microns, containing artificial cerebrospinal fluid (ACSF: 124 mM NaCl, 10 mM glucose, 2 mM KCl, 2 mM MgSO4, 2 mM CaCl2, 1.25 mM KH2PO4, and 26 mM NaHCO3, 300-310 mOsmols)) was positioned on the skin covering the optic tectum. A differential extracellular amplifier (DAGAN, USA) amplified the voltage difference between the signal (measured by the signal electrode) and the reference electrode. The differential signal was band pass filtered at 0.3-300 Hz and digitized at 2 kHz via a PCI-6251 interface (National instruments, UK) using WinEDR (John Dempster, University of Strathclyde, UK). A grounding electrode grounded the electrical system. All electrodes were connected with ACSF. Each recording lasted 600 seconds. Manual analysis was completed by quantification of the number, cumulative duration, and mean duration of epileptiform-like events with Clampfit 10.2 software (Molecular Devices Corporation, USA). An electrical discharge was considered epileptiform if it was a poly-spiking event comprising at least 3 spikes with a minimum amplitude of three times the baseline amplitude and a duration of at least 100 milliseconds. Data are expressed as mean±SD.

[3] = test system: zebrafish larvae; experiment: Zebrafish pentylenetetrazole (PTZ) seizure model, behavioral analysis; assay type: in vivo, zebrafish (Danio rerio); conditions: 2 hours incubation; for antiseizure activity at lower concentrations: MTC/2 and MTC/4
Protocol: Experiments were performed as [Add references please: Copmans (2018), ACS chemical neuroscience; Copmans et al. (2018) Neurochem. Int. 112, 124-133; Afrikanova et al. (2013) PLoS One 8, e54166; Orellana-Paucar et al. (2012) Epilepsy Behav 24, 14-22]. In brief, a single 7 dpf larva was placed in each well of a 96-well plate and treated with either VHC (1% DMSO) or test compound in a 100 μl volume. Larvae were incubated in dark for 2 hours at 28° C., whereafter 100 μl of either VHC (embryo medium) or 40 mM PTZ (20 mM working concentration) was added to each well. Next, within 5 minutes the 96-well plate was placed in an automated tracking device (ZebraBox Viewpoint, France) and larval behavior was video recorded for 30 minutes. The complete procedure was performed in dark conditions using infrared light. Total locomotor activity was recorded by ZebraLab software (Viewpoint, France) and expressed in actinteg units, which is the sum of pixel changes detected during the defined time interval (5 minutes). Larval behavior was depicted as mean actinteg units per 5 minutes in the 30 minute recording period and over consecutive time intervals. Data are expressed as mean±SD for single experiments with regards to screening, and as mean±SEM for single experiments and for independent experiments of which the means or data are pooled.
In the first secondary screen three replicate wells were used per sample (100 μg/mL) tested and each experimental plate contained 12 internal control wells. In the second secondary screen six replicate wells were used per sample and concentration tested (100, 33, and 11 μg/mL), again 12 internal control wells were used per experimental plate.

[4] = test system: zebrafish larvae; experiment: Toxicity evaluation, maximum tolerated concentration (MTC) in zebrafish larvae; assay type: in vivo, zebrafish (Danio rerio); conditions: highest concentration without death, toxicity or locomotor impairment
Protocol: Maximum tolerated concentration (MTC) was determined prior to further experiments and used as the highest test concentration. Experiments were described as described in Copmans et al. (2018) ACS chemical neuroscience. MTC was investigated by exposing 12 larvae of 6 dpf to a range of concentrations in a 100 μl volume during 18 hours. The following parameters were investigated after 2 and 18 hours of exposure: touch response, morphology, posture, edema, signs of necrosis, swim bladder, and heartbeat.

[5] = Solubility in the injection solvent (PEG200:DMSO 1:1); assay type: physicochemical; conditions: 20 mg/kg dose
Protocol: For experiments with zebrafish larvae, dry samples and compounds were dissolved in 100% dimethyl sulfoxide (DMSO, spectroscopy grade) as 100-fold concentrated stocks and diluted in embryo medium to a final concentration of 1% DMSO content, except for PTZ which was dissolved in embryo medium (0% DMSO). Control groups were treated with 1% DMSO (VHC) in accordance with the final solvent concentration of tested samples or compounds. For mice experiments, a mixture of poly-ethylene glycol M.W. 200 (PEG200) and 100% DMSO (spectroscopy grade) (1:1 PEG200:DMSO) was used as solvent and VHC. Pentylenetetrazole and valproate were purchased from Sigma-Aldrich.

Structure (SMILES): Cc1cc2ccc3c(c2cn1)OC(C(C)C)C3=O (stereo not shown) [TMC-120A]
- mean seizure duration (±SD) ([1]; 1.25 mg/kg i.p.): 15 s
- mean seizure duration (±SD) ([1]; 2.5 mg/kg i.p.): 13 s
- mean seizure duration (±SD) ([1]; 5 mg/kg i.p.): 20 s
- mean seizure duration (±SD) ([1]; 10 mg/kg i.p.): 17 s
- cumulative duration of PTZ-induced epileptiform events [2]: significantly lowered
- number of PTZ-induced epileptiform events [2]: significantly lowered
- percentage of larvae with PTZ-induced epileptiform activity [2]: significantly lowered the percentage of larvae with PTZ-induced epileptiform activity by more than half
- antiseizure activity at lower concentrations [3]: No significant antiseizure activity
- PTZ-induced seizure behavior in 5 min time intervals ([3]; at MTC): significant reduction
- PTZ-induced seizure behavior in the 30 min recording period ([3]; at MTC): not TMC-120A, significantly lowered
- maximum tolerated concentration (MTC) [4]: 20 µg/mL
- solubility in the solvent [5]: poor solubility

Structure (SMILES): CC1=Cc2ccc3c(c2CO1)O[C@@H](C(C)C)C3=O [penicisochroman G]
- PTZ-induced seizure behavior in 5 min time intervals ([3]; at the tested concentration): significant reduction

Structure (SMILES): CC(C)=C1Oc2c(ccc3cc(C)ncc23)C1=O [TMC-120B]
- mean seizure duration ([1]; 2.5 mg/kg i.p.): 27 s
- mean seizure duration ([1]; 5 mg/kg i.p.): 23.5 s
- mean seizure duration ([1]; 10 mg/kg i.p.): 10 s
- mean seizure duration ([1]; 20 mg/kg i.p.): 27.5 s
- mean seizure duration (±SD) ([1]; 2.5 mg/kg i.p.): 27 s
- mean seizure duration (±SD) ([1]; 5 mg/kg i.p.): 23.5 s
- mean seizure duration (±SD) ([1]; 10 mg/kg i.p.): 10 s
- mean seizure duration (±SD) ([1]; 20 mg/kg i.p.): 27.5 s
- cumulative duration of PTZ-induced epileptiform events [2]: significantly lowered
- number of PTZ-induced epileptiform events [2]: significantly lowered
- antiseizure activity at lower concentrations [3]: No significant antiseizure activity
- PTZ-induced seizure behavior in 5 min time intervals ([3]; at MTC): significant reduction
- PTZ-induced seizure behavior in the 30 min recording period ([3]; at MTC): significantly lowered
- maximum tolerated concentration (MTC) [4]: 20 µg/mL
- solubility in the solvent [5]: poor solubility

Structure (SMILES): Cc1cc2ccc3c(c2cn1)OC(O)(C(C)C)C3=O (stereo not shown) [TMC-120C]
- PTZ-induced seizure behavior in 5 min time intervals ([3]; at the tested concentration): significant reduction
- PTZ-induced seizure behavior in the 30 min recording period ([3]; at the tested concentration): lowered PTZ-induced seizure behavior

Structure (SMILES): CC1=Cc2ccc3c(c2CO1)OC(=C(C)C)C3=O [ustusorane B]
- PTZ-induced seizure behavior in 5 min time intervals ([3]; at the tested concentration): significant reduction
